Key:
[1] = target: Glucagon-like peptide 1 receptor (Homo sapiens, UniProt P43220); test: Agonist activity at N-terminal hemagglutinin-tagged human GLP-1R expressed in CHO cells co-transfected with pcDNA3.0 assessed as increase in intracellular cAMP accumulation incubated for 30 mins by microplate reader analysis; type: functional, cell-based
[2] = target: T1, hERG (KCNH2) (Homo sapiens, UniProt Q12809); test: Inhibition of hERG at 10 uM at -80 mV holding potential by whole-cell patch clamp analysis relative to control; type: toxicity
T1 sequence (Q12809 whole entry): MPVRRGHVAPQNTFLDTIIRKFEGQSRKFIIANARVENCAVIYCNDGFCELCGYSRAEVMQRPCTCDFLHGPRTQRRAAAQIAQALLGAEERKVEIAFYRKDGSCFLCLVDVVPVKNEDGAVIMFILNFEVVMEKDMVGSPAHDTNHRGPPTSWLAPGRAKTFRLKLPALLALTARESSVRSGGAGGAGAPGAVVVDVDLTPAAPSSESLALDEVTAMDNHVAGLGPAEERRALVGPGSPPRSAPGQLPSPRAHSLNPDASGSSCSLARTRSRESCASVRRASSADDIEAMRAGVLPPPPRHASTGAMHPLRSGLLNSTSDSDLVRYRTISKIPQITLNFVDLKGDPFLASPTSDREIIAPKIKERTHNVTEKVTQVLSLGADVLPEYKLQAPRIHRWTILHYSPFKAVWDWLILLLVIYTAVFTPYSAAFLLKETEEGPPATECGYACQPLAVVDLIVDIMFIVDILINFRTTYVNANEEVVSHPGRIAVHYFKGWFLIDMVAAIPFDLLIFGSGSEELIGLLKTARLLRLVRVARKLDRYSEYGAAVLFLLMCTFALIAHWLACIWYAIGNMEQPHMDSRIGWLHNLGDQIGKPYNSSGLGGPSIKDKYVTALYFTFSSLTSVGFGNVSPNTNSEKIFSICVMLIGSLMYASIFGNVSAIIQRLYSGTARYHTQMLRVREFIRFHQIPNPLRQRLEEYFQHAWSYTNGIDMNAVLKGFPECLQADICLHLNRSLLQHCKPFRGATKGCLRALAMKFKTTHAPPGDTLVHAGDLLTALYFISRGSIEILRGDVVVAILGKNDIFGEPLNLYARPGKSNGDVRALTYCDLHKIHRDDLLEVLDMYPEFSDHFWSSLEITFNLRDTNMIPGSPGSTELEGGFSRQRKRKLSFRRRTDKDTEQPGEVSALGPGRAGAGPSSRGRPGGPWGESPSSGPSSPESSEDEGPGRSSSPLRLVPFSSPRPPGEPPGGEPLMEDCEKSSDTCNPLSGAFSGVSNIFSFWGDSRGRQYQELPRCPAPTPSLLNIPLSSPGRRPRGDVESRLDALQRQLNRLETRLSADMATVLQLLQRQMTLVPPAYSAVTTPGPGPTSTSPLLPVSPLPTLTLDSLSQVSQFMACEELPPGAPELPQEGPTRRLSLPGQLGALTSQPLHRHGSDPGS

[3] = Half life in Sprague-Dawley rat at 5 mg/kg, po measured up to 24 hrs by LC-MS/MS analysis; type: ADME, organism-based; details: in vivo
[4] = AUC (0 to infinity) in Sprague-Dawley rat at 5 mg/kg, po measured up to 24 hrs by LC-MS/MS analysis; type: ADME, organism-based; details: in vivo
[5] = Observed apparent oral clearance in Sprague-Dawley rat at 5 mg/kg, po measured up to 24 hrs by LC-MS/MS analysis; type: ADME, organism-based; details: in vivo
[6] = in vivo; details: Sprague-Dawley, rat, po, 5 mg/kg
[7] = Cmax in Sprague-Dawley rat at 5 mg/kg, po measured up to 24 hrs by LC-MS/MS analysis; type: ADME, organism-based; details: in vivo
[8] = Fraction of the dose absorbed in Sprague-Dawley rat at 5 mg/kg, po measured up to 24 hrs by LC-MS/MS analysis; type: ADME, organism-based; details: in vivo, read-out: Fabs
[9] = target: T1, hERG (KCNH2); test: Inhibition of hERG at 1 uM at -80 mV holding potential by whole-cell patch clamp analysis relative to control; type: toxicity

Sequence of Glucagon-like peptide 1 receptor (P43220 whole entry): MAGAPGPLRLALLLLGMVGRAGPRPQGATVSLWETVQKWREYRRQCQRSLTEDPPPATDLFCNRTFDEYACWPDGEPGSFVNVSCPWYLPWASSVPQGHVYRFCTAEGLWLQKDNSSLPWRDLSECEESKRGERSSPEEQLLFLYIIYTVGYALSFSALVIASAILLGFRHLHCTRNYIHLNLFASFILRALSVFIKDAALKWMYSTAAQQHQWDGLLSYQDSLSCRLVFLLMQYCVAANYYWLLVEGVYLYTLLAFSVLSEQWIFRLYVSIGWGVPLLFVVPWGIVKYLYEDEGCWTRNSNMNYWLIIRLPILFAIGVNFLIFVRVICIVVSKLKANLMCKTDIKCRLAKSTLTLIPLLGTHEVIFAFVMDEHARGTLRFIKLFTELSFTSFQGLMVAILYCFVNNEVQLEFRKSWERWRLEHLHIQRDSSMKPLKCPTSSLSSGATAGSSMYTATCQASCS

SMILES: N#Cc1ccc(Cc2cccc(OC3CCN(Cc4nc5ccc(C(=O)O)nc5n4C[C@@H]4CCO4)CC3)n2)c2occc12
- EC50 [1]: 7910 pM

SMILES: O=C(O)c1ccc2nc(CN3CCC(Oc4cccc(COc5ccc6cn[nH]c6c5)n4)CC3)n(C[C@@H]3CCO3)c2n1
- EC50 [1]: 840 pM

SMILES: O=C(O)c1cc2c(nc(CN3CCC(Oc4ccnc(COc5ccc(Cl)cc5)n4)CC3)n2C[C@@H]2CCO2)s1
- EC50 [1]: 3700 pM

SMILES: O=C(O)c1cc2c(nc(CN3CCC(Oc4cccc(OCc5ccc(Cl)cc5)n4)CC3)n2C[C@@H]2CCO2)s1
- EC50 [1]: 9530 pM

SMILES: O=C(O)c1cc2c(nc(CN3CCC(Oc4cccc(Cc5ccccc5F)n4)CC3)n2C[C@@H]2CCO2)s1
- EC50 [1]: 81000 pM

SMILES: COc1ccc(C(F)(F)F)cc1OCc1nccc(OC2CCN(Cc3nc4sc(C(=O)O)cc4n3C[C@@H]3CCO3)CC2)n1
- EC50 [1]: 19400 pM

SMILES: O=C(O)c1cc2c(nc(CN3CCC(Oc4cccc(Cc5ccc(-c6ccn(C(F)F)n6)cc5)n4)CC3)n2C[C@@H]2CCO2)s1
- EC50 [1]: 16900 pM

SMILES: O=C(O)c1cc(F)c2nc(CN3CC=C(c4cccc(OCc5ccc(CC(F)(F)F)cc5F)n4)CC3)n(C[C@@H]3CCO3)c2c1
- EC50 [1]: 96 pM

SMILES: Cc1nn(C)c2c(F)c(Cc3cccc(OC4CCN(Cc5nc6ccc(C(=O)O)nc6n5C[C@@H]5CCO5)CC4)n3)ccc12
- EC50 [1]: 1740 pM

SMILES: COc1cc2c(Cl)ccc(OCc3cccc(OC4CCN(Cc5nc6ccc(C(=O)O)cc6n5C[C@@H]5CCO5)CC4)n3)c2o1
- EC50 [1]: 200 pM

SMILES: O=C(O)c1ccc2nc(CN3CCC(Oc4cccc(Cc5ccc(Cl)c6c5OCC6)n4)CC3)n(C[C@@H]3CCO3)c2c1
- EC50 [1]: 110 pM

SMILES: O=C(O)c1cc(F)c2nc(CN3CCC(c4cccc(OCc5ccc(C6CC(F)(F)C6)cc5F)n4)CC3)n(C[C@@H]3CCO3)c2c1
- inhibition at 10 µM [2]: 101%
- half-life [3]: 2.3 h
- AUC(0-inf) [4]: 229 ng·h/mL
- CL/F [5]: 375 mL/min/kg
- Tmax at 24 h [6]: 2 h
- EC50 [1]: 26 pM
- Cmax [7]: 65.6 ng/mL
- Fa at 24 h [8]: 6.7%

SMILES: O=C(O)c1ccc2nc(CN3CCC(Oc4cccc(Cc5ccc(Cl)c6occc56)n4)CC3)n(C[C@@H]3CCO3)c2n1
- EC50 [1]: 350 pM

SMILES: N#Cc1ccc(Cc2cccc(OC3CCN(Cc4nc5ccc(C(=O)O)cc5n4C[C@@H]4CCO4)CC3)n2)c(F)c1
- EC50 [1]: 1140 pM

SMILES: O=C(O)c1cc2c(nc(CN3CCC(Oc4ccnc(Cc5ccc(Cl)c6ccoc56)n4)CC3)n2C[C@@H]2CCO2)s1
- EC50 [1]: 1840 pM

SMILES: O=C(O)c1ccc2nc(CN3CCC(c4cccc(OCc5ccc(CC(F)F)cc5F)n4)CC3)n(C[C@@H]3CCO3)c2c1
- EC50 [1]: 260 pM

SMILES: N#Cc1ccc(Cc2cccc(OC3CCN(Cc4nc5sc(C(=O)O)cc5n4C[C@@H]4CCO4)CC3)n2)c2occc12
- EC50 [1]: 96800 pM

SMILES: C[C@H]1CN(c2cccc(OCc3ccc(CC(F)F)cc3F)n2)CCN1Cc1nc2c(F)cc(C(=O)O)cc2n1C[C@@H]1CCO1
- EC50 [1]: 70 pM

SMILES: O=C(O)c1ccc2nc(CN3CC=C(c4cccc(OCc5ccc(CC(F)F)cc5F)n4)CC3)n(C[C@@H]3CCO3)c2n1
- EC50 [1]: 130 pM

SMILES: Cn1ncc2ccc(Cc3cccc(OC4CCN(Cc5nc6c(F)cc(C(=O)O)cc6n5C[C@@H]5CCO5)CC4)n3)c(F)c21
- EC50 [1]: 960 pM

SMILES: O=C(O)c1ccc2nc(CN3CCC(Oc4cccc(COc5ccc(Cl)c6cc(F)oc56)n4)CC3)n(C[C@@H]3CCO3)c2c1
- EC50 [1]: 210 pM

SMILES: O=C(O)c1ccc2nc(CN3CCC(Oc4cccc(COc5ccc(Cl)c6ccoc56)n4)CC3)n(C[C@@H]3CCO3)c2n1
- inhibition at 1 µM [9]: 1%
- inhibition at 10 µM [2]: 9.8%
- AUC(0-inf) [4]: 204 ng·h/mL
- CL/F [5]: 448 mL/min/kg
- Tmax at 24 h [6]: 0.5 h
- EC50 [1]: 62 pM
- Cmax [7]: 116 ng/mL
- Fa at 24 h [8]: 13.4%

SMILES: Cn1ncc2ccc(Cc3cccc(OC4CCN(Cc5nc6sc(C(=O)O)cc6n5C[C@@H]5CCO5)CC4)n3)c(F)c21
- EC50 [1]: 77100 pM

SMILES: O=C(O)c1cc2c(nc(CN3CCC(Oc4cccc(COc5ccc(Cl)cc5F)n4)CC3)n2C[C@@H]2CCO2)s1
- EC50 [1]: 1760 pM

SMILES: O=C(O)c1ccc2nc(CN3CCC(Oc4ccnc(Cc5ccc(Cl)c6ccoc56)n4)CC3)n(C[C@@H]3CCO3)c2n1
- EC50 [1]: 340 pM

SMILES: COc1cc(C#N)ccc1OCc1nccc(OC2CCN(Cc3nc4sc(C(=O)O)cc4n3C[C@@H]3CCO3)CC2)n1
- EC50 [1]: 450 pM

SMILES: CC1(c2ccc(COc3cccc(-c4ccc(Cc5nc6ccc(C(=O)O)cc6n5C[C@@H]5CCO5)c(F)c4)n3)c(F)c2)CC(F)(F)C1
- EC50 [1]: 3100 pM

SMILES: O=C(O)c1cc2c(nc(CN3CCC(Oc4cccc(Cc5ccc6cnn(CC(F)F)c6c5)n4)CC3)n2C[C@@H]2CCO2)s1
- EC50 [1]: 14600 pM

SMILES: O=C(O)c1ccc2nc(CN3CCC(c4cccc(OCc5ccc(C6CC(F)(F)C6)cc5F)n4)CC3)n(C[C@@H]3CCO3)c2c1
- EC50 [1]: 88 pM

SMILES: N#Cc1ccc(OCc2nccc(OC3CCN(Cc4nc5sc(C(=O)O)cc5n4C[C@@H]4CCO4)CC3)n2)c(F)c1
- EC50 [1]: 320 pM

SMILES: O=C(O)c1cc2c(nc(CN3CCC(Oc4nccc(Cc5ccc(Cl)cc5)n4)CC3)n2C[C@@H]2CCO2)s1
- EC50 [1]: 396000 pM

Reference: ChEMBL document CHEMBL6109144, “Discovery of New Difluorocyclobutyl Derivatives as Effective Glucagon-Like Peptide-1 Receptor Agonists with Reduced hERG Inhibitory Activities” (J Med Chem, 2025)
